Test results as given in patent US11446226B2, “Composition for preventing or improving intrinsic aging comprising paeoniflorin or albiflorin” (Amorepacific Corporation, priority 2017, dated 2022).

Columns and labels:
[1] = test system: MMP-1; experiment: MMP-1 inhibition effect in fibroblasts, stimulation source TNF-α (MMP-1 ELISA normalized to CCK8 cell viability); assay type: cell-based; conditions: TNF-α 10 ng/mL; for MMP-1 level with respect to the negative control group treated with TNF-α as 100: 0.1 or 1 ppm; for Normalized MMP-1 level relative to TNF-α control (100%): 48 hours
Description: Fibroblasts acquired from ATCC were transferred to a medium containing 10% (v/v) FBS and were cultured at 37° C. for 24 hours under the condition of 5% CO2. After replacing the medium with a serum-free medium, the cells were cultured for at least 6 hours. Then, after treating with 10 ng/mL TNF-α, as an intrinsic inflammatory factor causing intrinsic aging, and then with 0.1 ppm or 1 ppm paeoniflorin (Sigma-Aldrich), the cells were cultured for 48 hours. 48 hours later, the culture was separated partly and MMP-1 ELISA was conducted according to a method commonly employed in the art. A negative control group was not treated with paeoniflorin, and a positive control group was treated with 2 μM ATRA (all-trans retinoic acid) instead of the paeoniflorin. Subsequently, the remaining culture was separated partly and cell viability was measured by CCK8 (cell count kit 8) assay according to a method commonly employed in the art. The result was normalized to the result of the MMP-1 ELISA. Meanwhile, the MMP-1 inhibition effect by albiflorin was investigated in the same manner as the MMP-1 inhibition effect by paeoniflorin, except that the cells were treated with 0.1 ppm or 1 ppm albiflorin (Wako Chemical) instead of the 0.1 ppm or 1 ppm paeoniflorin. The MMP-1 inhibition effect by a combination of paeoniflorin and albiflorin was investigated in the same manner as the MMP-1 inhibition effect by paeoniflorin, except that the cells were treated with a 10:1 mixture of paeoniflorin and albiflorin (P+A) at 0.1+0.01 ppm or 1+0.1 ppm instead of the 0.1 ppm or 1 ppm paeoniflorin.

[2] = test system: MMP-1; experiment: MMP-1 inhibition effect in fibroblasts, stimulation source UV (UVB; MMP-1 ELISA normalized to CCK8 cell viability); assay type: cell-based; conditions: 48 hours
Description: Fibroblasts acquired from ATCC were transferred to a medium containing 10% (v/v) FBS and were cultured at 37° C. for 24 hours under the condition of 5% CO2. After replacing the medium with a serum-free medium, the cells were cultured for at least 6 hours. Then, after treating with 30 mJ/cm^2 UVB, as an extrinsic stimulating factor causing extrinsic aging, and then with 0.1 ppm or 1 ppm paeoniflorin (Sigma-Aldrich), the cells were cultured for 48 hours. 48 hours later, the culture was separated partly and MMP-1 ELISA was conducted according to a method commonly employed in the art. A negative control group was not treated with paeoniflorin, and a positive control group was treated with 2 μM ATRA (all-trans retinoic acid) instead of the paeoniflorin.
Subsequently, the remaining culture was separated partly and cell viability was measured by CCK8 (cell count kit 8) assay according to a method commonly employed in the art. The result was normalized to the result of the MMP-1 ELISA.
Meanwhile, the MMP-1 inhibition effect by albiflorin was investigated in the same manner as the MMP-1 inhibition effect by paeoniflorin, except that the cells were treated with 0.1 ppm or 1 ppm albiflorin (Wako Chemical) instead of the 0.1 ppm or 1 ppm paeoniflorin.

[3] = 0.1 ppm, with respect to negative control
[4] = 1 ppm, with respect to negative control
[5] = UVB 30 mJ/cm^2, 0.1 ppm, with respect to negative control
[6] = UVB 30 mJ/cm^2, 1 ppm, with respect to negative control

| Compound | MMP-1 level with respect to the negative control group treated with TNF-α as 100 [1] | Normalized MMP-1 level relative to TNF-α control (100%) [1, 3] [%] | Normalized MMP-1 level relative to TNF-α control (100%) [1, 4] [%] | Normalized MMP-1 Inhibition (%) [2, 5] [%] | Normalized MMP-1 Inhibition (%) [2, 6] [%] | Normalized MMP-1 level relative to TNF-α control (100%) ([1]; positive control 2 μM ATRA) [%] | Normalized MMP-1 Inhibition (%) ([2]; UVB 30 mJ/cm^2, positive control 2 μM ATRA) |
| --- | --- | --- | --- | --- | --- | --- | --- |
| C[C@@]12C[C@@]3(O)O[C@@H](O1)[C@]1(COC(=O)c4ccccc4)[C@H]3C[C@@]12O[C@@H]1O[C@H](CO)[C@@H](O)[C@H](O)[C@H]1O [Paeoniflorin, paeoniflorin] | about 60% | 69.34 | 66.49 | −3.27 | −22.03 |  |  |
| CC1=C(/C=C/C(C)=C/C=C/C(C)=C/C(=O)O)C(C)(C)CCC1 [Positive control, all-trans retinoic acid, reference compound] |  |  |  |  |  | 48.75 | 25.72 |
| C[C@]12C[C@@H](O)[C@@H]3C[C@@]1(O[C@@H]1O[C@H](CO)[C@@H](O)[C@H](O)[C@H]1O)[C@]3(COC(=O)c1ccccc1)C(=O)O2 [Albiflorin, albiflorin] | about 60% | 63.25 | 59.44 | −5.29 | −10.96 |  |  |
